Test results as given in ChEMBL document CHEMBL4028877, “Targets for Drug Therapy for Autism Spectrum Disorder: Challenges and Future Directions” (J Med Chem, 2017).

Legend:
[1] = target: Glutamate receptor ionotropic, NMDA 2A (Rattus norvegicus) (UniProt Q00959); test: Antagonist activity at GluN2A in rat primary pyramidal neurons assessed as inhibition of NMDA/glycine-induced current amplitude at 10 uM at holding potential of -70 mV by patch-clamp electrophysiology assay
[2] = target: Glutamate receptor ionotropic, NMDA 2A (Rattus norvegicus) (UniProt Q00959); test: Antagonist activity at GluN2A in CA1 region of Sprague-Dawley rat hippocampal slices assessed as inhibition of schaffer collateral input-stimulated field excitatory postsynaptic potential at 30 to 50 uM after 40 mins by electrophysiology assay
Oxytocin receptor [3] = target: T1, Oxytocin receptor (Mus musculus, UniProt P97926); test: Displacement of [Tyrosyl-2,6-3H]Oxytocin from recombinant mouse OTR expressed in CHO-K1 cells after 180 mins by liquid scintillation counting method; format: cell-based
T1 sequence (P97926 whole entry): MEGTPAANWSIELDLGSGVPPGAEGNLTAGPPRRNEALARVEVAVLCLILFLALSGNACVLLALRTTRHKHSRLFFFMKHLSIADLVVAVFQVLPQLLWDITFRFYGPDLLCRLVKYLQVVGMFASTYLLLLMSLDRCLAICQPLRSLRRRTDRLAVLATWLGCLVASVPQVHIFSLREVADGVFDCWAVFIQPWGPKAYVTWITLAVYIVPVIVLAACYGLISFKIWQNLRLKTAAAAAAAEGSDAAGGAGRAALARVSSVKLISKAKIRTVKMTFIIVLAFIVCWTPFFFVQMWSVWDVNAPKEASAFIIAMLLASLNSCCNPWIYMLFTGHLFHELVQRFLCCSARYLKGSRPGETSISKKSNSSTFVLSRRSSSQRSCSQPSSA

Oxytocin receptor [4] = target: T1, Oxytocin receptor; test: Agonist activity at recombinant mouse OTR expressed in CHO-K1 cells assessed as induction of Ca2+ mobilization after overnight incubation by FLIPR assay; format: functional, cell-based

Chain of Glutamate receptor ionotropic, NMDA 2A (Rattus norvegicus) (Q00959 23-1464 limits assumed): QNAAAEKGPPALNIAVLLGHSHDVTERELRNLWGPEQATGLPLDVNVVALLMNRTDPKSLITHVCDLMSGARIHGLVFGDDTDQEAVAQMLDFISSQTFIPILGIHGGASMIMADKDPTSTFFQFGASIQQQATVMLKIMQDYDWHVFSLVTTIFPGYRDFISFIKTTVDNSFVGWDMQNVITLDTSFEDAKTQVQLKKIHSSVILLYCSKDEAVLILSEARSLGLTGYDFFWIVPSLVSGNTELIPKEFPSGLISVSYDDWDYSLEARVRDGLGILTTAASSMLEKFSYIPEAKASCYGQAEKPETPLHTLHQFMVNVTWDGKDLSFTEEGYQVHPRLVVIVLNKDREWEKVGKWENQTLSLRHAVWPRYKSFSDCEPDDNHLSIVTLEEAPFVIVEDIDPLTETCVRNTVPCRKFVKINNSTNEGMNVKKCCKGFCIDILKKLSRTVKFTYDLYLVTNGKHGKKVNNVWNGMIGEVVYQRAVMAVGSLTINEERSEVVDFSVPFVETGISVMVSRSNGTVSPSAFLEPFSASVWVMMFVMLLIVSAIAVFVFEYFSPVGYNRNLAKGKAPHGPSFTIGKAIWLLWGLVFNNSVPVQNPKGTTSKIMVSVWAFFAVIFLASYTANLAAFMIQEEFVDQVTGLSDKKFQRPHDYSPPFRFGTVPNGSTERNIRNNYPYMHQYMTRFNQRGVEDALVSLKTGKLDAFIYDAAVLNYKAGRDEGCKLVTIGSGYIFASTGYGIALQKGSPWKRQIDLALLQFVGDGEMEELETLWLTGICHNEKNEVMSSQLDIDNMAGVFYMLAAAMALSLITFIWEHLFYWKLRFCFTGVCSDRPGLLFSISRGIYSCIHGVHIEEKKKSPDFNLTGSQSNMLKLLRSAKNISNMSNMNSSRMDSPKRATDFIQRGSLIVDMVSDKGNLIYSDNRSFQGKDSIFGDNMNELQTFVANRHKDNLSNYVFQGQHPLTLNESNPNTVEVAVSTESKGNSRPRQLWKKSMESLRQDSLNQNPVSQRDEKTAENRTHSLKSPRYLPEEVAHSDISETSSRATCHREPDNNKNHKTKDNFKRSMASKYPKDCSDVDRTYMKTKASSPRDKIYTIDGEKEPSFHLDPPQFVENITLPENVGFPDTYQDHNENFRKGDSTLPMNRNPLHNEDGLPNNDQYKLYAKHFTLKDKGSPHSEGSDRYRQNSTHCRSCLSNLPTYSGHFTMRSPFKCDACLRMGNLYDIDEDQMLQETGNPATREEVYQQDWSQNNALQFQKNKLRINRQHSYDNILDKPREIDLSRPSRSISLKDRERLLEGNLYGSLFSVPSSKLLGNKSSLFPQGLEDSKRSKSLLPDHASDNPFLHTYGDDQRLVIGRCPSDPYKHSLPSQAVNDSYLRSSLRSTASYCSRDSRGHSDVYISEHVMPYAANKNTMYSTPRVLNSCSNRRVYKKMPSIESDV

| SMILES | inhibition [1] [%] | inhibition [2] [%] | Ki (Oxytocin receptor [3]) [nM] | EC50 (Oxytocin receptor [4]) [nM] |
| --- | --- | --- | --- | --- |
| Cc1ncc(CNC(=O)c2cnc(CNS(=O)(=O)c3ccc(F)c(Cl)c3)cn2)s1 | 30 | 60 |  |  |
| Cc1cc(C(=O)N2Cc3cnn(C)c3Nc3ccccc32)ccc1CNC(=O)N1CCN(Cc2cc(O)cc(O)c2)CC1 |  |  | 51.6 | 29 |
| Cc1ncc(CNC(=O)c2cnc(CNS(=O)(=O)c3ccc(F)c(F)c3)c(C)n2)s1 | 30 | 60 |  |  |
